Test results reported in patent publication US11767341B2, “Lincosamide antibiotics and uses thereof” (President and Fellows of Harvard College, priority 2017, dated 2023).
≈ marks a conversion by molar mass, not a printed value. Like-named read-outs stand apart in the source and are kept apart here.

What was measured:
Assay in all cases: MIC determination
Type in all cases: cell-based
S. aureus ATCC 29213 = conditions: Staphylococcus aureus, ATCC29213, S. aureus ATCC 29213; read-out: MIC
S. aureus BAA 977 iErmA = conditions: Staphylococcus aureus, BAA977
[1] = test system: S. aureus Micromyx USA 300; conditions: Staphylococcus aureus, USA300; S. aureus Micromyx USA 300; read-out: MIC
S. aureus MMX 3035 cErmA = conditions: Staphylococcus aureus, MMX3035CERMA
[2] = test system: S. aureus BAA-1556 (USA 300); conditions: Staphylococcus aureus
[3] = test system: S. aureus UNT96, NRS710, MP-618 (USA 100, Erythro >8); conditions: Staphylococcus aureus
[4] = test system: S. aureus UNT-146, MP-620, TP 506 (ermA); conditions: Staphylococcus aureus
[5] = test system: S. aureus UNT-120, MP-619, NRS22 (USA 600, GISA); conditions: Staphylococcus aureus
S. pneumoniae ATCC 49619 = conditions: Streptococcus pneumoniae, ATCC49619; S. pneumoniae ATCC 49619; read-out: MIC
[6] = test system: S. pneumoniae MMX 3028 cErmB; conditions: Streptococcus pneumoniae, MMX3028CERMB; S. pneumoniae MMX 3028 cErmB; read-out: MIC
[7] = test system: S. pneumoniae MMX 3031 cMefA; conditions: Streptococcus pneumoniae, MMX3031CMEFA
[8] = test system: S. pneumoniae UNT-038, MP-626, TP 160 (mefA); conditions: Streptococcus pneumoniae
[9] = test system: S. pneumoniae UNT-039, MP-627, TP1517 (mefA); conditions: Streptococcus pneumoniae
[10] = test system: S. pneumoniae TP 1579 (ermB + tet(M, O)); conditions: Streptococcus pneumoniae
[11] = test system: S. pneumoniae TP 1537 (ermB + mefA); conditions: Streptococcus pneumoniae
S. pyogenes ATCC 19615 = conditions: Streptococcus pyogenes, ATCC19615; S. pyogenes ATCC 19615; read-out: MIC
[12] = test system: S. pyogenes MMX 946 Macrolide-Resistant; conditions: Streptococcus pyogenes
[13] = test system: S. pyogenes UNT-014, MP-625 MacRes; conditions: Streptococcus pyogenes; S. pyogenes UNT-014, MP-625 MacRes; read-out: MIC
E. faecalis ATCC 29212 = conditions: Enterococcus faecalis
[14] = test system: E. faecalis MMX 847 Macrolide-Resistant; conditions: Enterococcus faecalis
E. faecalis UNT-047 VRE = conditions: Enterococcus faecalis
C. difficile BAA 1805 = conditions: Clostridioides difficile, BAA1805; C. difficile BAA 1805; read-out: MIC
B. fragilis ATCC 25285 = conditions: Bacteroides fragilis, ATCC25285; B. fragilis ATCC 25285; read-out: MIC
K. pneumoniae ATCC 10031 = conditions: Klebsiella pneumoniae, ATCC10031; K. pneumoniae ATCC 10031; read-out: MIC
[15] = test system: K. pneumoniae IHMA 658692; KPC-2; conditions: Klebsiella pneumoniae
K. pneumoniae UNT TEM-10 = conditions: Klebsiella pneumoniae, UNTTEM10
E. coli ATCC 25922 = conditions: Escherichia coli
[16] = test system: E. coli MMX TolC parent strain; conditions: Escherichia coli
E. coli MMX 0121 ΔTolC = conditions: Escherichia coli
E. coli GUEST131 (NDM-1) = conditions: Escherichia coli
P. aeruginosa ATCC 27853 = conditions: Pseudomonas aeruginosa, ATCC27853
[17] = test system: P. aeruginosa MMX Mex parent strain; conditions: Pseudomonas aeruginosa
[18] = test system: P. aeruginosa MMX 3476 Δmex; conditions: Pseudomonas aeruginosa
H. influenzae ATCC 49247 = conditions: Haemophilus influenzae, ATCC49247; H. influenzae ATCC 49247; read-out: MIC
[19] = test system: S. aureus MP-549 msr(a) USA 300; conditions: Staphylococcus aureus, USA300, S. aureus MP-549 msr(a) USA 300

What does the source list for `CSC1O[C@H]([C@H](NC(=O)[C@H]2NC[C@@H]3CC(F)(F)CCO[C@H]32)[C@H](C)Cl)C(O)[C@@H](O)[C@H]1O` (stereo partly drawn) [FSA-24036]?
MIC (S. aureus ATCC 29213): 0.25 µg/mL (≈ 0.526 µM); MIC (S. aureus BAA 977 iErmA): 0.5 µg/mL (≈ 1.05 µM); MIC [1]: 0.12 µg/mL (≈ 0.253 µM); MIC (S. aureus MMX 3035 cErmA; S. aureus MMX 3035 cErmA, read-out: MIC): > 64 µg/mL; MIC ([2]; S. aureus BAA-1556 (USA 300), read-out: MIC): > 32 µg/mL; MIC ([3]; S. aureus UNT96, NRS710, MP-618 (USA 100, Erythro >8), read-out: MIC): > 32 µg/mL; MIC ([4]; S. aureus UNT-146, MP-620, TP 506 (ermA), read-out: MIC): > 32 µg/mL; MIC ([5]; S. aureus UNT-120, MP-619, NRS22 (USA 600, GISA), read-out: MIC): > 32 µg/mL; MIC (S. pneumoniae ATCC 49619): ≤ 0.06 µg/mL; MIC [6]: 64 µg/mL (≈ 135 µM); MIC [7]: ≤ 0.06 µg/mL; MIC [8]: ≤ 0.0313 µg/mL; MIC [9]: ≤ 0.0313 µg/mL; MIC [10]: ≤ 0.0313 µg/mL; MIC ([11]; S. pneumoniae TP 1537 (ermB + mefA), read-out: MIC): > 32 µg/mL; MIC (S. pyogenes ATCC 19615): ≤ 0.0313 µg/mL; MIC ([12]; S. pyogenes MMX 946 Macrolide-Resistant (MacRes), read-out: MIC): 4 µg/mL (≈ 8.42 µM); MIC [13]: ≤ 0.0313 µg/mL; MIC (E. faecalis ATCC 29212; ATCC29212, read-out: MIC): 4 µg/mL (≈ 8.42 µM); MIC ([14]; E. faecalis MMX 847 Macrolide-Resistant (MacRes), read-out: MIC): > 64 µg/mL; MIC (E. faecalis UNT-047 VRE; E. faecalis UNT-047 VRE, read-out: MIC): > 32 µg/mL; MIC (C. difficile BAA 1805): 2 µg/mL (≈ 4.21 µM); MIC (B. fragilis ATCC 25285): 4 µg/mL (≈ 8.42 µM); MIC (K. pneumoniae ATCC 10031): 16 µg/mL (≈ 33.7 µM); MIC ([15]; K. pneumoniae IHMA 658692, KPC-2, read-out: MIC): > 32 µg/mL; MIC (K. pneumoniae UNT TEM-10; K. pneumoniae UNT TEM-10, read-out: MIC): > 32 µg/mL; MIC (E. coli ATCC 25922; ATCC25922, E. coli ATCC 25922, read-out: MIC): > 64 µg/mL; MIC ([16]; E. coli MMX TolC parent strain, read-out: MIC): > 64 µg/mL; MIC (E. coli MMX 0121 ΔTolC): 8 µg/mL (≈ 16.8 µM); MIC (E. coli GUEST131 (NDM-1)): > 32 µg/mL; MIC (P. aeruginosa ATCC 27853; P. aeruginosa ATCC 27853, read-out: MIC): > 64 µg/mL; MIC ([17]; P. aeruginosa MMX Mex parent strain, read-out: MIC): > 64 µg/mL; MIC [18]: 32 µg/mL (≈ 67.4 µM); MIC (H. influenzae ATCC 49247): 4 µg/mL (≈ 8.42 µM)

What does the source list for `CSC1O[C@H]([C@H](NC(=O)[C@H]2NC[C@@H]3CC=CCO[C@H]32)[C@H](C)Cl)C(O)[C@@H](O)[C@H]1O` (stereo partly drawn) [FSA-24035]?
MIC (S. aureus ATCC 29213): 0.12 µg/mL (≈ 0.275 µM); MIC (S. aureus BAA 977 iErmA): 0.25 µg/mL (≈ 0.572 µM); MIC [19]: 0.5 µg/mL (≈ 1.14 µM); MIC [1]: 0.12 µg/mL (≈ 0.275 µM); MIC (S. aureus MMX 3035 cErmA): > 64 µg/mL; MIC [2]: > 32 µg/mL; MIC [3]: > 32 µg/mL; MIC [4]: > 32 µg/mL; MIC [5]: > 32 µg/mL; MIC (S. pneumoniae ATCC 49619): ≤ 0.06 µg/mL; MIC [6]: 64 µg/mL (≈ 146 µM); MIC [7]: ≤ 0.06 µg/mL; MIC [8]: ≤ 0.0313 µg/mL; MIC [9]: ≤ 0.0313 µg/mL; MIC [10]: ≤ 0.0313 µg/mL; MIC [11]: 32 µg/mL (≈ 73.2 µM); MIC (S. pyogenes ATCC 19615): ≤ 0.0313 µg/mL; MIC [12]: 16 µg/mL (≈ 36.6 µM); MIC [13]: ≤ 0.0313 µg/mL; MIC (E. faecalis ATCC 29212; ATCC29212): 16 µg/mL (≈ 36.6 µM); MIC [14]: > 64 µg/mL; MIC (E. faecalis UNT-047 VRE; VRE): > 32 µg/mL; MIC (C. difficile BAA 1805): 2 µg/mL (≈ 4.58 µM); MIC (B. fragilis ATCC 25285): 8 µg/mL (≈ 18.3 µM); MIC (K. pneumoniae ATCC 10031): 64 µg/mL (≈ 146 µM); MIC [15]: 32 µg/mL (≈ 73.2 µM); MIC (K. pneumoniae UNT TEM-10): 32 µg/mL (≈ 73.2 µM); MIC (E. coli ATCC 25922; ATCC25922): > 64 µg/mL; MIC [16]: > 64 µg/mL; MIC (E. coli MMX 0121 ΔTolC): 4 µg/mL (≈ 9.15 µM); MIC (E. coli GUEST131 (NDM-1)): > 32 µg/mL; MIC (P. aeruginosa ATCC 27853): > 64 µg/mL; MIC [17]: > 64 µg/mL; MIC [18]: 16 µg/mL (≈ 36.6 µM); MIC (H. influenzae ATCC 49247): 1 µg/mL (≈ 2.29 µM)
